Experimental data: PMC10674535, “Development and Evaluation of a Self-Nanoemulsifying Drug Delivery System for Sinapic Acid with Improved Antiviral Efficacy against SARS-CoV-2” (Pharmaceutics, 2023)
Values after ≈ are worked out from the molar mass of the structure shown. Like-named read-outs stand apart in the source and are kept apart here.

Legend:
[1] = in vitro; settings: African green monkey
[2] = Equilibrium (saturated) solubility of SA in oils, surfactants and cosurfactants (isothermal method); type: physicochemical; settings: room temperature; for solubility at 3 days: read-out: Saturated solubility of sinapic acid; for Saturated solubility of sinapic acid: 3 days, listed as SA
From the text: The equilibrium solubility of SA was studied in various oils, surfactants, and cosurfactants. Oils of different saturation degrees (medium- or long-chain triglycerides) were utilized to create an SNE to test their solubilization and nano-emulsification ability. The oil with the highest ability to solubilize SA was chosen due to its significant impact on drug solubilization ability and absorption. The tested oils included Labrafil, Capryol-90, Labrafac, olive oil, anise oil, almond oil, soybean oil, and corn oil. The screened surfactants were hydrophilic non-ionic surfactants (Cremophor El, Tween 20, and Tween 80); they have high HLB values and low oral toxicity. Labrasol, Transcutol, PEG 400, and propylene glycol were the screened cosurfactants. An isothermal method previously reported in the literature was utilized for the solubility determination. In brief, 300 mg of SA was added to 1 mL of each component in screw-capped glass vials and mixed using a vortex mixer. The mixtures were then transferred to a thermodynamic water bath shaker (JULABO™, Julabo Labortechnik GMBH, Seelbach, Germany) for continuous shaking at a speed of 100 rpm at room temperature for three days, followed by centrifugation at 4000 rpm for 25 min. SA concentration was measured spectrophotometrically at 322 nm after the supernatant was diluted with methanol using a magnetic stirrer at 500 rpm for 2 min at room temperature. The results of this study provide important insights into the solubility of SA in various oils, surfactants, and cosurfactants, which is crucial for the formulation of SA in a self-nanoemulsifying dosage form.

[3] = target: T1, 3CL Protease, tagged (SARS-CoV-2) (Mpro) (Severe acute respiratory syndrome coronavirus 2, UniProt P0DTD1); assay: Mpro enzyme assay (3CL Protease FRET assay kit); type: biochemical; settings: excitation 360 nm, emission 460 nm, read-out: IC50, in vitro Mpro inhibitory activity
T1 construct: 3CL Protease, tagged (SARS-CoV-2) Assay Kit; unspecified tag (printed only as 'tagged'); purchased BPS Bioscience, Inc. 79955-1
From the text: The in vitro FRET assay was monitored at an emission wavelength of 460 nm with an excitation at 360 nm using a Flx800 fluorescence spectrophotometer (BioTek Instruments, Winooski, VT, USA).

[4] = test system: SARS-CoV-2 (hCoV-19/Egypt/NRC-3/2020 isolate); assay: microbe, parasite or virus in culture; type: cell-based; settings: Severe acute respiratory syndrome coronavirus 2, Vero C1008, 48 h, read-out: IC50, in vitro antiviral activity against SARS-CoV-2

## COc1cc(/C=C/C(=O)O)cc(OC)c1O [Sinapic acid]
[1]
  CC50: 196 ± 15.1 µg/mL (≈ 0.875 mM)
[2]; Capryol 90 (oil), oil or lipid, thermodynamic from solid, in Capryol 90 (oil)
  solubility at 3 days: 22.5 mg/mL (≈ 100 mM)
[2]; Cremophore El (surfactant), thermodynamic from solid, in Cremophore El (surfactant)
  solubility at 3 days: 138 mg/mL (≈ 617 mM)
[2]; Labrafac (oil), oil or lipid, thermodynamic from solid, in Labrafac (oil)
  solubility at 3 days: 14.3 mg/mL (≈ 63.9 mM)
[2]; Labrafil (oil), in Labrafil (oil)
  solubility at 3 days: 30 mg/mL (≈ 134 mM)
[2]; Labrafil (oil), oil or lipid, thermodynamic from solid, in Labrafil (oil)
  solubility at 3 days: 30 mg/mL (≈ 134 mM)
[2]; Labrasol, thermodynamic from solid, in Labrasol
  solubility at 3 days: 60.4 mg/mL (≈ 269 mM)
[2]; PEG 400 (co-surfactant), organic solvent or mixture, thermodynamic from solid, in PEG 400 (co-surfactant)
  solubility at 3 days: 102 mg/mL (≈ 455 mM)
[2]; Transcutol (co-surfactant), organic solvent or mixture, thermodynamic from solid, in Transcutol (co-surfactant)
  solubility at 3 days: 193 mg/mL (≈ 860 mM)
[2]; Tween 20 (surfactant), thermodynamic from solid, in Tween 20 (surfactant)
  solubility at 3 days: 123 mg/mL (≈ 550 mM)
[2]; Tween 80 (surfactant), thermodynamic from solid, in Tween 80 (surfactant)
  solubility at 3 days: 78.8 mg/mL (≈ 352 mM)
[2]; almond oil, oil or lipid, thermodynamic from solid, in almond oil
  solubility at 3 days: 1.71 mg/mL (≈ 7.63 mM)
[2]; anise oil, oil or lipid, thermodynamic from solid, in anise oil
  solubility at 3 days: 5.02 mg/mL (≈ 22.4 mM)
[2]; corn oil, oil or lipid, thermodynamic from solid, in corn oil
  solubility at 3 days: 0.81 mg/mL (≈ 3.61 mM)
[2]; in Cremophore El (surfactant)
  Saturated solubility of sinapic acid: 138 mg/mL
[2]; in Labrasol
  Saturated solubility of sinapic acid: 60 mg/mL
[2]; in PEG 400 (co-surfactant)
  Saturated solubility of sinapic acid: 102 mg/mL
[2]; in Transcutol (co-surfactant)
  Saturated solubility of sinapic acid: 192 mg/mL
[2]; in Tween 80 (surfactant)
  Saturated solubility of sinapic acid: 78 mg/mL
[2]; in propylene glycol (co-surfactant)
  Saturated solubility of sinapic acid: 58 mg/mL
[2]; olive oil, oil or lipid, thermodynamic from solid, in olive oil
  solubility at 3 days: 7.11 mg/mL (≈ 31.7 mM)
[2]; propylene glycol (co-surfactant), organic solvent or mixture, thermodynamic from solid, in propylene glycol (co-surfactant)
  solubility at 3 days: 58.4 mg/mL (≈ 260 mM)
[2]; soybean oil, oil or lipid, thermodynamic from solid, in soybean oil
  solubility at 3 days: 1.25 mg/mL (≈ 5.58 mM)
[3]
  IC50: 6.74 ± 0.95 µM
[4]
  IC50: 2.53 ± 0.065 µg/mL (≈ 0.0113 mM)

## CCC(CC)COC(=O)[C@H](C)N[P@](=O)(OC[C@H]1O[C@@](C#N)(c2ccc3c(N)ncnn23)[C@H](O)[C@@H]1O)Oc1ccccc1 [remdesivir, reference compound]
[4]; Vero E6 cells, MOI 0.5, viral RNA by real-time PCR after 2 days, n = 3
  IC50: 0.036 ± 0.002 µg/mL (≈ 5.97e-05 mM)
